# Values quoted from earlier work in patent US9629818B2, “Pharmaceutical composition of tapentadol for parenteral administration” (TORRENT PHARMACEUTICALS LTD, priority 2012, dated 2017).
# Columns and labels:
# [1] = given orally
# [2] = in vivo
compound,measurement,setting,value
"CC[C@@H](c1cccc(O)c1)[C@@H](C)CN(C)C [tapentadol, (−)-(1R,2R)-3-(3-dimethylamino-1-ethyl-2-methyl-propyl)-phenol]",parent compound metabolized,[1],About 97%
same,duration of analgesic effect,[2],≤ 12 h
